In patent publication US10800834B2, “HER-1, HER-3 and IGF-1R compositions and uses thereof” (OHIO STATE INNOVATION FOUNDATION, priority 2013, dated 2020):
Entries after “also recorded” stand apart in the source; their conditions may differ.

Tests used:
[1] = test system: BxPC-3 pancreatic and JIMT-1 breast cancer cells; assay: SCID transplantable breast and pancreatic mouse model, IGF-1R peptides; format: in vivo; conditions: 200 μg i.v. weekly for 7 weeks; P values <0.05
Experimental: To test the in vivo effects of the chimeric peptides, a transplantable breast and pancreatic mouse model was used. BxPC-3 pancreatic and JIMT-1 breast cancer cells were injected subcutaneously into the flanks of SCID mice. After tumor challenge, the mice were treated intravenously with the IGF-1R peptide mimics starting at day zero (day of tumor challenge) and weekly for a total of 7 weeks. Tumor growth was monitored twice weekly and at the end of treatment, all mice were euthanized and the tumors extracted and weighed and the percentage tumor weight calculated.

[2] = test system: BxPC-3, MCF-7 and JIMT-1 cancer cells; assay: MTT proliferation assay with IGF-1R peptide mimics; format: cell-based, human; conditions: 25, 50, 100, 150 μg/ml, three days
Experimental: The effects of treatment with the IGF-1R peptide mimics were evaluated as inhibitors on proliferation of human pancreatic (BxPC-3) and breast (MCF-7 and JIMT-1) cancer cells. Ligand binding to the IGF-1 receptor results in activation that causes increase proliferation of the receptor and intracellular signaling. Accordingly, the effects of the IGF-1R peptide mimics on ligand binding inhibition and inhibition of cancer cell line proliferation were determined. To measure proliferation, the MTT assay was used where the cells were treated with the inhibitors at different concentrations and incubated for three days before adding MTT.

IGF-1R = target: T1, IGF-1R (Homo sapiens, UniProt P08069); assay: Human-phospho-IGF-1R sandwich ELISA; format: cell-based; conditions: MCF-7, JIMT-1 and BxPC-3 cells
T1 construct: IGF-1 signaling in MCF-7, JIMT-1 and BxPC-3 cells were analyzed using protein lysates after treatment; endogenous in cells; host or cells: MCF-7, JIMT-1 (human breast cancer) and BxPC-3 (human pancreatic cancer) cells
Experimental: The effects of chimeric peptides and antipeptide antibodies on IGF-1 signaling in MCF-7, JIMT-1 and BxPC-3 cells were analyzed using protein lysates after treatment and measurement of phosphorylated levels of the receptors in a sandwich ELISA method using Human-phospho-IGF-1R ELISA kit from R&D diagnostics. […] FIG. 22 A-C is treatment with peptide mimics and FIG. 22-D-F is treatment with peptide vaccine antibodies.

BXPC3 cells [3] = assay: BALB/c SCID transplantable mouse model, BXPC3, HER-3 peptide mimics; format: in vivo; conditions: BXPC3, peptide mimics i.v. weekly
Experimental: To test the in vivo effects of the peptide mimics, two transplantable mouse models were used. Mice 4-5 weeks old were challenged with either BXPC3 or JIMT-1 cells subcutaneously into the flank. After tumor challenge, mice were treated intravenously with the peptide mimics starting at day zero (day of tumor challenge) and weekly for a total of 8-9 treatments. Tumor growth was monitored twice weekly and at the end of treatment. All mice were euthanized and weighed. Tumors were also extracted and weighed. Results display tumor volume and % tumor weight (FIG. 16 A-D). Both peptide constructs had the ability to attenuate tumor growth in mice challenged with BXPC3 cells. […] As a result, only the HER-3 (461-479) peptide was used in JIMT-1 tumor model.

[4] = test system: New Zealand white outbred rabbits; assay: Immunogenicity of MVF HER-3 peptide constructs in rabbits (ELISA titers); format: in vivo, rabbit
Experimental: Two female New Zealand white outbred rabbits (Harlan) were immunized intramuscularly with 1 mg of MVF HER-3 (237-269) or MVF HER-3 (461-479) peptide dissolved in 500 μL PBS and emulsified in 500 μL of Montanide ISA720 vehicle with 100 μg muramyl dipeptide adjuvant, nor-MDP (N-acetylglucosamine-3yl-acetyl-L-alanyl-D-isoglutamine). Subsequent booster injections were given every three weeks after primary immunization. Sera of rabbits immunized with either MVF peptide were collected weekly, and complement was inactivated by heating to 56° C. for 30 minutes. The titer of anti-HER-3 peptide antibodies were quantified by ELISA. The MVF HER-3 (237-269) and MVF HER-3 (461-479) peptides were highly immunogenic by three weeks after the third immunization. Antibody titers against MVF HER-3 (461-479) and MVF HER-3 (237-269) were ≥32,000 and ≥128,000, respectively (FIGS. 9 A & B). High antibody titers were also generated against B cell epitope constructs. HER-3 (461-479) and HER-3 (237-269) antibody titers were ≥16,000 and ≥128,000, respectively (Data not shown). Total IgG was purified from high-titered sera on a protein A/G column (Pierce, Rockford, Ill.) and eluted antibodies were concentrated and exchanged in PBS using 100 kDa cutoff centrifuge filter units (Millipore). Antibody concentrations were determined by Coomassie plus protein assay reagent kit (Pierce).

BxPC3 cells [5] = assay: MTT inhibition assay with HER-3 peptide mimics, BxPC3; format: cell-based, human; conditions: 72 hours, HRG stimulated
Experimental: The HER-3 peptide mimics and peptide vaccine antibodies may provide anti-tumor activity by blocking dimerization or ligand binding of the HER-3 receptor. To test the ability of the chimeric peptides to elicit antitumor effects, HER-3 positive cells were examined in a MTT inhibition assay. The anti-proliferative effects of the peptide mimics were tested at various concentrations (FIG. 13). Taxol, an inhibitor of mitosis, was used as a positive control (data not shown). Cells were seeded in 96 well flat bottom plates at 1×10^4 cells/well in 100 μl growth media and allowed to adhere overnight at 37° C. Media was removed from the wells and replaced with HER3 peptides made up in 1% growth media. Plates were incubated for 1 hour at 37° C., and subsequently stimulated with either 50 ng/mL HRG. Plates were incubated an additional 72 hours at 37° C. before 25 μL of 5 mg/mL MTT was added to each well. Plates were incubated for 2 hours at 37° C., then 100 μL extraction buffer (20% SDA, 50% DMF, pH 4.7) was added. Plates were incubated overnight at 37° C. and read on an ELISA reader at 570 nm. Percent inhibition was calculated by the following equation: (untreated-treated)/untreated×100. Error bars represent SEM of three separate experiments. […] The HER-3 peptide mimics inhibited proliferation of BXPC3, MCF-7 and JIMT-1 cell lines in a dose-dependent manner. […]

Met-1 cells = assay: FVB/n Met-1 transplantable breast tumor model; format: in vivo, mouse; conditions: peptide mimics i.v. weekly; for tumor growth and development: vs untreated and irrelevant peptide
Experimental: Antitumor effects of immunization with HER-1 peptide vaccines and chimeric peptides in Fvb/n breast cancer model The Fvb/n transplantable model of HER-family dependent breast cancer represents a good model for human breast cancer. The peptide vaccines were dissolved in water and emulsified in Montanide ISA 720 (1:1) and […] (N-acetylglucosamine-3yl-acetyl-1-alanyl-D-isoglutamine). Female wild-type FVB/n mice (Charles River Laboratories) at the age of 5 to 6 weeks were immunized three times at 3-week intervals with […], and 14 days after the third immunization, the mice were challenged s.c. with Met-1 cells (200,000 per mouse). Met-1 cells were derived from the PyMT-transgenic mouse model with FVB/n background. Tumor growth was monitored for up to 6 weeks after challenge. During immunization, blood was drawn biweekly and used in ELISA to monitor Ab titers. In the case of treatment with the chimeric peptides, the mice were simply challenged with Met-1 cells and treated weekly i.v. with […] for up to 6 weeks beginning at day 0. The mice were euthanized at the end of treatment and tumors extracted and weighed.
Tumor tissues were formalin fixed, embedded in paraffin, and stained immunohistochemically for CD31 and Ki-67. The tissue blocks were cut into […], deparaffinized in xylol, and then rehydrated with different grades of alcohol. The rehydrated sections were then washed with distilled water and placed in a microwave oven for 15 minutes. The slides were then blocked and incubated for 40 minutes at 20° C. with primary Abs specific for Ki-67 and CD31.
To evaluate the inhibitory effects of the peptide vaccines in vivo, the FVB/n transplantable mouse model was used in which Met-1 cells from FVB/n background were injected in the mammary fat pad of wild-type FVB/n mice after immunization with the chimeric MVF HER-1 peptides as shown in the immunization schedule (data not shown). Tumor development in this model is dependent on the HER family receptor overexpression. All mice were immunized at 5 to 6 weeks of age and received two boosters at 3-week intervals. As depicted in FIG. 5, the vaccine constructs were immunogenic in the mice, and all of the mice had relatively high titers of the Abs (greater than 40,000). Mice were challenged with Met-1 cells and monitored weekly for 6 weeks.
To test the in vivo effects of the peptide mimics, the same FVB/n model was used as in the case of immunization, but in this experiment, wild-type mice were challenged with Met-1 cells and treated i.v. with the peptide mimics. […] In assessing how the peptide inhibitors exert their effects in vivo, the tumor sections were analyzed after treatment with the peptide mimics for blood vessel density and actively proliferating cells. […] The effect on proliferating cells was most evident in the case of treatment with the 382-410 and the 418-435 constructs (FIG. 7C).

A549 lung cancer cells = assay: BALB/c SCID transplantable lung tumor model; format: in vivo, mouse; parameters: dose or concentration left out as unconfirmed; conditions: i.v. weekly, peptide mimics or cetuximab
Experimental: […] Tumor growth was measured twice weekly using vernier calipers, and at the end of the experiment, the tumors were extracted and weighed.

[6] = Immunization of transgenic mice with chimeric peptides (summary statement); format: in vivo, mouse; conditions: immunization of transgenic mice with one or more of the chimeric peptides

## ACPPNTYRFEGWRCVDRDF (Ac-ACPPNTYRFEGWRCVDRDF-NH2; cysteine pairing not given here; listed as Homo sapiens) [IGF-1R (234-252), peptide mimic acetylated and amidated]
[1]
  percentage tumor weight: significantly decreased the percentage tumor weight
[2]
  inhibition of proliferation (MTT): inhibition of all three cell lines which was dose dependent; also recorded: dose-dependent inhibition of proliferation
IGF-1R
  phosphorylated IGF-1R, treatment with peptides: able to downregulate the expression of phosphorylated IGF-1R

## ERLDIKHNRPRRDCVAEGK (Ac-ERLDIKHNRPRRDCVAEGK-NH2; listed as Homo sapiens) [HER-3 (461-479), peptide mimic acetylated and amidated]
BXPC3 cells [3]
  % tumor weight: significantly decreased the % tumor weight
  tumor growth: greater anti-tumor effects
[4]; sera of rabbits immunized with MVF HER-3 peptides, data not shown
  antibody titers against B cell epitope constructs: ≥ 16,000

## FVMLNYNTNSSHALRQLRLTQLTE (Ac-FVMLNYNTNSSHALRQLRLTQLTE-NH2; listed as Homo sapiens) [HER-3 (99-122), peptide mimic acetylated and amidated]
BxPC3 cells [5]
  Percent inhibition of proliferation: ~80%

## KIEFMYPPPYLDNERSNGTI [irrelevant peptide, negative control peptide, reference compound]
Met-1 cells
  tumor growth and development: no inhibitory effects

## LIQAWPENRTDLHAFENLEIIRGRTKQHG (Ac-LIQAWPENRTDLHAFENLEIIRGRTKQHG-NH2; listed as Homo sapiens) [HER-1 (382-410), peptide mimic acetylated and amidated]
A549 lung cancer cells
  tumor growth and development: significantly delayed tumor growth and development
Met-1 cells
  delay in tumor onset: approximately 2 weeks
  microvascular density (CD31) in tumor sections: significant reduction in microvascular density
  percentage tumor weight: greater inhibitory effects
  proliferating cells (Ki-67) in tumor sections: most evident
  tumor growth and development: decrease in tumor growth and development

## LLFRVAGLESLGDLFPNLTVIRGWKL (Ac-LLFRVAGLESLGDLFPNLTVIRGWKL-NH2; listed as Homo sapiens) [IGF-1R (56-81), peptide mimic acetylated and amidated]
[1]
  percentage tumor weight: significantly decreased the percentage tumor weight
[2]
  inhibition of proliferation (MTT): inhibition of all three cell lines which was dose dependent; also recorded: dose-dependent inhibition of proliferation
IGF-1R
  phosphorylated IGF-1R, treatment with peptides: able to downregulate the expression of phosphorylated IGF-1R

## MVF HER-3 (461-479): HER-3 (461-479) synthesized collinearly with modified MVF epitope (SEQ ID NO:12) and GPSL linker (KLLSLIKGVIVHRLEGVEGPSLERLDIKHNRPRRDCVAEGK)
[6]
  tumor growth after immunization: significant delay of tumor growth
[4]; three weeks after the third immunization
  Antibody titers against MVF peptide: ≥ 32,000

## SLNITSLGLRSLKEISDG (Ac-SLNITSLGLRSLKEISDG-NH2; listed as Homo sapiens) [HER-1 (418-435), peptide mimic acetylated and amidated]
A549 lung cancer cells
  tumor growth and development: significantly delayed tumor growth and development
Met-1 cells
  delay in tumor onset: approximately 2 weeks
  microvascular density (CD31) in tumor sections: significant reduction in microvascular density
  percentage tumor weight: greater inhibitory effects
  proliferating cells (Ki-67) in tumor sections: most evident
  tumor growth and development: decrease in tumor growth and development
